From patent US11111251B2, “Positive allosteric modulators of the muscarinic acetylcholine receptor M1” (Vanderbilt University, priority 2016, dated 2021)

Target: T1, human mAChR M1 (Homo sapiens, UniProt P11229)
T1 sequence (P11229 1-460): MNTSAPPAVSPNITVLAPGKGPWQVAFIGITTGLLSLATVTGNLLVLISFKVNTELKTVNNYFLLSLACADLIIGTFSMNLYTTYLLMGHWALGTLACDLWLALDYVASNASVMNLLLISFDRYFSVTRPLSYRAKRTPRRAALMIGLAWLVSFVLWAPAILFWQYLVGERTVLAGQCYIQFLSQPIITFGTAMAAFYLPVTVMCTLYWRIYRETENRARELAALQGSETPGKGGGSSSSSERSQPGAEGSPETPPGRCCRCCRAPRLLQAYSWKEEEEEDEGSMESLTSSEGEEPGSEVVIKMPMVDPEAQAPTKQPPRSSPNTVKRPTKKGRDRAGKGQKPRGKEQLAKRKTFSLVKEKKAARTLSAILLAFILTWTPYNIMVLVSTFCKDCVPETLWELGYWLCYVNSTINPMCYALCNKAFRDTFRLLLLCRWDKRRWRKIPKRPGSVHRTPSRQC
Assay: mAChR M1 cell-based functional assay: calcium mobilization, positive allosteric modulator mode (increase in EC20 acetylcholine response)
Conditions: not given
Source text: a. Cell Lines Expressing Muscarinic Acetylcholine Receptors
Chinese hamster ovary (CHO-K1) cells stably expressing rat (r)M1 were purchased from the American Type Culture Collection and cultured according to their indicated protocol. CHO cells stably expressing human (h)M2, hM3, and hM5 were described previously (Levey, et al., 1991); hMi and hM4 cDNAs were purchased from Missouri S&T cDNA Resource; rM4 cDNA was provided by T. I. Bonner (National Institutes of Health, Bethesda, Md.). rM2 and rM3 were cloned from a rat brain cDNA library and sequence verified. hMi, rM2, rM3, hM4, and rM4 cDNAs were used to stably transfect CHO-K1 cells purchased from the American Type Culture Collection using Lipofectamine2000. To make stable rM2, hM2, rM3, hM4, and rM4 cell lines for use in calcium mobilization assays, these cells also were stably transfected with a chimeric G-protein (Gqi5) (provided by B. R. Conklin, University of California, San Francisco) using Lipofectamine 2000. rMi, hMi, rM3, hM3, rM5, and hM5 cells were grown in Ham's F-12 medium containing 10% heat-inactivated fetal bovine serum (FBS), 20 mM HEPES, and 50 μg/mL G418 sulfate. rM2-Gqi5, hM2-Gqi5, and hM4-Gqi5 cells were grown in the same medium also containing 500 μg/mL Hygromycin B. Stable rM4-Gqi5 cells were grown in DMEM containing 10% heat-inactivated FBS, 20 mM HEPES, 400 μg/mL G418 sulfate, and 500 μg/mL Hygromycin B.
b. Cell-Based Functional Assay of Muscarinic Acetylcholine Receptor Activity
For high throughput measurement of agonist-evoked increases in intracellular calcium, CHO-K1 cells stably expressing muscarinic receptors were plated in growth medium lacking G418 and hygromycin at 15,000 cells/20 μL/well in Greiner 384-well black-walled, tissue culture (TC)-treated, clear-bottom plates (VWR). Cells were incubated overnight at 37° C. and 5% CO2. The next day, cells were washed using an ELX 405 (BioTek) with four washes (80 μL) of assay buffer then aspirated to 20 μL. Next, 20 μL of 16 μM Fluo-4/acetoxymethyl ester (Invitrogen, Carlsbad, Calif.) prepared as a 2.3 mM stock in DMSO and mixed in a 1:1 ratio with 10% (w/v) Pluronic F-127 and diluted in assay buffer was added to the wells and the cell plates were incubated for 50 min at 37° C. and 5% CO2. Dye was removed by washing with the ELX 405 (four […], washes of assay buffer) then aspirated to 20 μL. Compound master plates were formatted in an 11 point CRC format (1:3 dilutions) in 100% DMSO with a starting concentration of 10 mM using the BRAVO liquid handler (Agilent). Test compound CRCs were then transferred to daughter plates (240 nL) using the Echo acoustic plate reformatter (Labcyte, Sunnyvale, Calif.) and then diluted into assay buffer (40 μL) to a 2× stock using a Thermo Fisher Combi (Thermo Fisher Scientific, Waltham, Mass.).
Calcium flux was measured using the Functional Drug Screening System (FDSS) 6000 (Hamamatsu Corporation, Tokyo, Japan) as an increase in the fluorescent static ratio. Compounds were applied to cells (20 μL, 2×) using the automated system of the FDSS 6000 at 4 s into the 300 s protocol and the data were collected at 1 Hz. At 144 s into the 300s protocol, 10 μL of an EC20 concentration of the muscarinic receptor agonist acetylcholine was added (5×), followed by the addition of 12 μL an EC80 concentration of acetylcholine at the 230 s time point (5×). Agonist activity was analyzed as a concentration-dependent increase in calcium mobilization upon compound addition. Positive allosteric modulator activity was analyzed as a concentration-dependent increase in the EC20 acetylcholine response. Antagonist activity was analyzed as a concentration-dependent decrease in the EC80 acetylcholine response. Concentration-response curves were generated using a four-parameter logistical equation in XLfit curve fitting software (IDBS, Bridgewater, N.J.) for Excel (Microsoft, Redmond, Wash.) or Prism (GraphPad Software, Inc., San Diego, Calif.).

Row | EC50 [µM] | Molecule
1 | 0.087 | Cc1ccc(Cc2cc(C(=O)N[C@H]3CCCC[C@@H]3O)nc3ccsc23)cn1 [Compound 1, N-((1S,2S)-2-Hydroxycyclohexyl)-7-((6-methylpyridin-3-yl)methyl)thieno[3,2-b]pyridine-5-carboxamide]
2 | > 10 | Cc1ccc(Oc2cc(C(=O)NC3CC(F)C3)nc3ccsc23)cn1 (centres unmarked) [Compound 17, N-(3-fluorocyclobutyl)-7-[(6-methyl-3-pyridyl)oxy]thieno[3,2-b]pyridine-5-carboxamide]

Same assay, conditions: Table 1; mAChR M1 cell-based functional assay, PAM mode; species not given; read-out: EC50

Row | Molecule | EC50 [µM]
3 | Cn1cc(-c2ccc(Oc3cc(C(=O)N[C@H]4CCCC[C@@H]4O)nc4ccsc34)c(F)c2)cn1 [Compound 2, 7-[2-fluoro-4-(1-methylpyrazol-4-yl)phenoxy]-N-[(1S,2S)-2-hydroxycyclohexyl]thieno[3,2-b]pyridine-5-carboxamide] | 2.15
4 | Cn1cc(-c2ccc(Oc3cc(C(=O)NC4CCOCC4)nc4ccsc34)c(F)c2)cn1 [Compound 4, 7-[2-fluoro-4-(1-methylpyrazol-4-yl)phenoxy]-N-tetrahydropyran-4-yl-thieno[3,2-b]pyridine-5-carboxamide] | 4.99
5 | Cn1cc(-c2ccc(Oc3cc(C(=O)NC4CC[C@H]4O)nc4ccsc34)c(F)c2)cn1 (stereo partly drawn) [Compound 5, 7-[2-fluoro-4-(1-methylpyrazol-4-yl)phenoxy]-N-[(2R)-2-hydroxycyclobutyl]thieno[3,2-b]pyridine-5-carboxamide] | > 10
6 | Cn1cc(-c2ccc(Oc3cc(C(=O)N[C@H]4CCC[C@@H]4O)nc4ccsc34)c(F)c2)cn1 [Compound 6] | > 10
7 | Cn1cc(-c2ccc(Oc3cc(C(=O)N[C@H]4CCOC[C@@H]4O)nc4ccsc34)c(F)c2)cn1 [Compound 7] | 3.26
8 | Cn1cc(-c2ccc(Oc3cc(C(=O)N[C@H]4COCC[C@@H]4O)nc4ccsc34)c(F)c2)cn1 [Compound 8] | 7.79
9 | Cn1cc(-c2ccc(Oc3cc(C(=O)N[C@H]4CCCCC[C@@H]4O)nc4ccsc34)c(F)c2)cn1 [Compound 9] | > 10
10 | Cn1cc2c(-c3ccc(Oc4cc(C(=O)N[C@H]5CCOC[C@@H]5O)nc5ccsc45)c(F)c3)cccc2n1 [Compound 13, 7-[2-fluoro-4-(2-methylindazol-4-yl)phenoxy]-N-[(3R,4S)-3-hydroxytetrahydropyran-4-yl]thieno[3,2-b]pyridine-5-carboxamide] | 4.12
11 | Cn1cc2c(-c3ccc(Oc4cc(C(=O)N[C@H]5COCC[C@@H]5O)nc5ccsc45)c(F)c3)cccc2n1 [Compound 14] | 4.25
12 | Cc1ccc(Oc2cc(C(=O)N[C@@H]3CC[C@H]3O)nc3ccsc23)cn1 [Compound 16] | > 10

The next lines start with the values.

Row | EC50 [µM] | Molecule
13 | > 10 | Cc1ccc(Oc2cc(C(=O)N[C@H]3CCC[C@@H]3O)nc3ccsc23)cn1 [Compound 18, N-[(1S,2S)-2-hydroxycyclopentyl]-7-[(6-methyl-3-pyridyl)oxy]thieno[3,2-b]pyridine-5-carboxamide]
14 | > 10 | Cc1ccc(Oc2cc(C(=O)NC3CCCCC3)nc3ccsc23)cn1 [Compound 19, N-cyclohexyl-7-[(6-methyl-3-pyridyl)oxy]thieno[3,2-b]pyridine-5-carboxamide]
15 | > 10 | Cc1ccc(Oc2cc(C(=O)NC3CCOCC3)nc3ccsc23)cn1 [Compound 20, 7-[(6-methyl-3-pyridyl)oxy]-N-tetrahydropyran-4-yl-thieno[3,2-b]pyridine-5-carboxamide]
16 | 1.14 | Cc1ccc(Oc2cc(C(=O)N[C@H]3CCCC[C@@H]3O)nc3ccsc23)cn1 [Compound 21, N-[(1S,2S)-2-hydroxycyclohexyl]-7-[(6-methyl-3-pyridyl)oxy]thieno[3,2-b]pyridine-5-carboxamide]
17 | 1.79 | Cc1ccc(Oc2cc(C(=O)N[C@H]3CCOC[C@@H]3O)nc3ccsc23)cn1 [Compound 22, N-[(3R,4S)-3-hydroxytetrahydropyran-4-yl]-7-[(6-methyl-3-pyridyl)oxy]thieno[3,2-b]pyridine-5-carboxamide]
18 | > 10 | Cc1ccc(Oc2cc(C(=O)N[C@H]3COCC[C@@H]3O)nc3ccsc23)cn1 [Compound 23, N-[(3S,4S)-4-hydroxytetrahydropyran-3-yl]-7-[(6-methyl-3-pyridyl)oxy]thieno[3,2-b]pyridine-5-carboxamide]
19 | > 10 | CO[C@H]1CCCC[C@@H]1NC(=O)c1cc(Oc2ccc(C)nc2)c2sccc2n1 [Compound 24, N-[(1S,2S)-2-methoxycyclohexyl]-7-[(6-methyl-3-pyridyl)oxy]thieno[3,2-b]pyridine-5-carboxamide]
20 | 0.75 | Cc1ccc(Oc2cc(C(=O)N[C@H]3CCCCC[C@@H]3O)nc3ccsc23)cn1 [Compound 25, N-[(1S,2S)-2-hydroxycycloheptyl]-7-[(6-methyl-3-pyridyl)oxy]thieno[3,2-b]pyridine-5-carboxamide]
21 | > 10 | Cc1ccc(Oc2cc(C(=O)NC(CO)c3ccccc3)nc3ccsc23)cn1 (centres unmarked) [Compound 27, N-(2-hydroxy-1-phenyl-ethyl)-7-[(6-methyl-3-pyridyl)oxy]thieno[3,2-b]pyridine-5-carboxamide]
22 | > 10 | Cc1ccc(Oc2cc(C(=O)NC3CCCNC3=O)nc3ccsc23)cn1 (centres unmarked) [Compound 29, 7-[(6-methyl-3-pyridyl)oxy]-N-(2-oxo-3-pipendyl)thieno[3,2-b]pyridine-5-carboxamide]
23 | > 10 | Cc1ccc(Oc2cc(C(=O)NC(CO)C3CC3)nc3ccsc23)cn1 (centres unmarked) [Compound 30, N-(1-cyclopropyl-2-hydroxy-ethyl)-7-[(6-methyl-3-pyridyl)oxy]thieno[3,2-b]pyridine-5-carboxamide]
24 | > 10 | Cc1ccc(Oc2cc(C(=O)NCC(O)C(F)(F)F)nc3ccsc23)cn1 (centres unmarked) [Compound 31, 7-[(6-methyl-3-pyridyl)oxy]-N-(3,3,3-trifluoro-2-hydroxy-propyl)thieno[3,2-b]pyridine-5-carboxamide]
25 | > 10 | Cc1ccc(Oc2cc(C(=O)NCC(C)(C)O)nc3ccsc23)cn1 [Compound 32, N-(2-hydroxy-2-methyl-propyl)-7-[(6-methyl-3-pyridyl)oxy]thieno[3,2-b]pyridine-5-carboxamide]
26 | > 10 | COCCNC(=O)c1cc(Oc2ccc(C)nc2)c2sccc2n1 [Compound 33, N-(2-methoxyethyl)-7-[(6-methyl-3-pyridyl)oxy]thieno[3,2-b]pyridine-5-carboxamide]
27 | > 10 | Cc1ccc(Oc2cc(C(=O)NC(C)C(C)(C)CO)nc3ccsc23)cn1 (centres unmarked) [Compound 34, N-(3-hydroxy-1,2,2-trimethyl-propyl)-7-[(6-methyl-3-pyridyl)oxy]thieno[3,2-b]pyridine-5-carboxamide]

Same assay, conditions: Table 2; human M1

Row | Molecule | Human M1 Emax (%)
28 | 7-[[6-(1-methylpyrazol-4-yl)-3-pyridyl]methyl]-N-tetrahydropyran-4-yl-thieno[3,2-b]pyridine-5-carboxamide [Compound 301] | 71.87

Same assay, conditions: Table 2; human M1; read-out: Human M1 EC50

Row | Molecule | EC50 [µM]
29 | 7-[[6-(1-methylpyrazol-4-yl)-3-pyridyl]methyl]-N-tetrahydropyran-4-yl-thieno[3,2-b]pyridine-5-carboxamide [Compound 301] | 0.0423
